Results as given in patent US20200079758A1, “[4-(PHENYLSULFONYL)PIPERAZIN-1-YL](1H-1,2,3-TRIAZOL-4-YL)METHANONES” (priority 2016, published 2020).

Biological target: T1, recombinant human AKR1C3 (Homo sapiens, UniProt P42330)
T1 construct: GST (cleaved yes); made in house; host or cells: E. coli
T1 sequence (P42330 1-323): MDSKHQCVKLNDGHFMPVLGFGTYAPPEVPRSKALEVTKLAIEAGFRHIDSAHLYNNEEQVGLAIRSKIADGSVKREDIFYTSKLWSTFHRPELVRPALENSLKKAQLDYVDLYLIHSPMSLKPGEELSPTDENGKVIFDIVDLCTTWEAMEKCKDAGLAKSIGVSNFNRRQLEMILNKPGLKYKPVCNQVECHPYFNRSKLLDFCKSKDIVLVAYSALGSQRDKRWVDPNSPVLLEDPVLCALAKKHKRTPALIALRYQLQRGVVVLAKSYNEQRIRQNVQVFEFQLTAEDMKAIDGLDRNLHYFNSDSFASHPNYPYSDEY
Assay: AKR1C3-inhibitory activity assay (generation of Coumberol from Coumberone)
Assay type: biochemical
Conditions: Coumberone 0.3 μM, NADPH 10 μM, 22° C., typically 90 min, average or median values
Description: The AKR1C3-inhibitory activity of the substances of the present invention was measured in the AKR1C3 assay described in the paragraphs below.
Essentially, the enzyme activity is measured by quantification of the generation of Coumberol from Coumberone (Halim et al. J. AM. CHEM. SOC. 2008, 130:14123-14128 and Yee et al. Proc. Natl. Acad. Sci. USA 2006, 103:13304-13309). In this test, the increase of the highly fluorescent Coumberol by NADPH- (nicotinamide adenine dinucleotide phosphate)-dependent reduction of the non-fluorescent Coumberone by AKR1C3 was determined.
The enzyme used was recombinant human AKR1C3 (Aldo-keto reductase family 1 member C3; GenBank Accession No. NM_003739). This was expressed in E. coli as GST (glutathione S transferase) fusion protein and purified by glutathione Sepharose affinity chromatography. The GST was removed by digestion with thrombin and subsequent size exclusion chromatography (Dufort, I., Rheault, P., Huang, X F., Soucy, P., and Luu-The, V., Endocrinology 140, 568-574 (1999)).
For the assay, 50 nl of a 100-fold concentrated solution of the test substance in DMSO were pipetted into a black low-volume 384-well microtiter plate (Greiner Bio-One, Frickenhausen, Germany), 2.5 μl of a solution of AKR1C3 in assay buffer [50 mM potassium phosphate buffer pH 7, 1 mM DTT, 0.0022% (w/v) Pluronic F-127, 0.01% BSA (w/v) and protease inhibitor cocktail (Complete, EDTA-free Protease Inhibitor Cocktail from Roche)] were added and the mixture was incubated for 15 min to allow pre-binding of the substances to the enzyme prior to the enzyme reaction. The enzyme reaction was then started by addition of 2.5 μl of a solution of NADPH (20 μM→final concentration in 5 μl of assay volume is 10 μM) and Coumberone (0.6 μM→final concentration in 5 μl of assay volume is 0.3 μM) in assay buffer, and the resulting mixture was incubated at 22° C. for the reaction time of typically 90 min. The concentration of the AKR1C3 and the reaction time was adapted to the respective activity of the enzyme preparation and adjusted such that the assay was carried out in the linear range. Typical AKR1C3 concentrations were in the region of 1 nM. The reaction was stopped by addition of 2.5 μl of a stop solution consisting of 3 μM EM-1404 as inhibitor (U.S. Pat. No. 6,541,463) in 50 mM HEPES pH7.5 (3 μM EM-1404→final concentration in 7.5 μl of assay volume is 1 μM). The fluorescence of the Coumberole was then measured at 520 nm (excitation at 380 nm) using a suitable measuring instrument (Pherastar from BMG Labtechnologies). The intensity of the fluorescence was used as a measure of the amount of Coumberole formed and thus of the enzyme activity of AKR1C3. The data were normalized (enzyme reaction without inhibitor=0% inhibition; all other assay components, but no enzyme=100% inhibition).

SMILES | IC50
CC1(C)CN(C(=O)c2c[nH]nn2)CCN1S(=O)(=O)c1cccc(Cl)c1 [Example 21, {4-[(3-chlorophenyl)sulfonyl]-3,3-dimethylpiperazin-1-yl}(1H-1,2,3-triazol-4-yl)methanone] | 3 nM
C[C@@H]1CN(S(=O)(=O)c2cc(C(F)(F)F)cc(C(F)(F)F)c2)C[C@H](C)N1C(=O)c1cnn[nH]1 [Example 98, [(2R,6S)-4-{[3,5-bis(trifluoromethyl)phenyl]sulfonyl}-2,6-dimethylpiperazin-1-yl](1H-1,2,3-triazol-5-yl)methanone] | 56 nM
C[C@@H]1CN(C(=O)c2cnn[nH]2)[C@@H](C)CN1S(=O)(=O)c1ccccc1Cl [Example 73, {(2S,5R)-4-[(2-chlorophenyl)sulfonyl]-2,5-dimethylpiperazin-1-yl}(1H-1,2,3-triazol-5-yl)methanone] | 1 nM
Cc1cc(C)c(S(=O)(=O)N2CCN(C(=O)c3cnn[nH]3)CC2(C)C)c(C)c1 [Example 113, {3,3-dimethyl-4-[(2,4,6-trimethylphenyl)sulfonyl]piperazin-1-yl}(1H-1,2,3-triazol-5-yl)methanone] | 39 nM
CC1(C)CN(C(=O)c2c[nH]nn2)CCN1S(=O)(=O)c1cccc(Cl)c1F [Example 24, {4-[(3-chloro-2-fluorophenyl)sulfonyl]-3,3-dimethylpiperazin-1-yl}(1H-1,2,3-triazol-4-yl)methanone] | 8 nM
C[C@@H]1CN(S(=O)(=O)c2ccccc2C(F)(F)F)C[C@H](C)N1C(=O)c1c[nH]nn1 [Example 47, [(2R,6S)-2,6-dimethyl-4-{[2-(trifluoromethyl)phenyl]sulfonyl}piperazin-1-yl](1H-1,2,3-triazol-4-yl)methanone] | 2 nM
C[C@@H]1CN(C(=O)c2cnn[nH]2)[C@@H](C)CN1S(=O)(=O)c1ccccc1F [Example 5, {(2S,5R)-4-[(2-fluorophenyl)sulfonyl]-2,5-dimethylpiperazin-1-yl}(1H-1,2,3-triazol-5-yl)methanone] | 2 nM
COc1ccc(S(=O)(=O)N2CCN(C(=O)c3cnn[nH]3)CC2(C)C)cc1OC [Example 118, {4-[(3,4-dimethoxyphenyl)sulfonyl]-3,3-dimethylpiperazin-1-yl}(1H-1,2,3-triazol-5-yl)methanone] | 77 nM
C[C@@H]1CN(C(=O)c2cnn[nH]2)[C@@H](C)CN1S(=O)(=O)c1cc(Cl)ccc1Cl [Example 4, {(2S,5R)-4-[(2,5-dichlorophenyl)sulfonyl]-2,5-dimethylpiperazin-1-yl}(1H-1,2,3-triazol-5-yl)methanone] | 2 nM
C[C@@H]1CN(S(=O)(=O)c2ccc(OC(F)(F)F)cc2)C[C@H](C)N1C(=O)c1cnn[nH]1 [Example 101, [(2R,6S)-2,6-dimethyl-4-{[4-(trifluoromethoxy)phenyl]sulfonyl}piperazin-1-yl](1H-1,2,3-triazol-5-yl)methanone] | 399 nM
C[C@@H]1CN(C(=O)c2cnn[nH]2)[C@@H](C)CN1S(=O)(=O)c1ccccc1-c1ccccc1 [Example 86, [(2S,5R)-4-(biphenyl-2-ylsulfonyl)-2,5-dimethylpiperazin-1-yl](1H-1,2,3-triazol-5-yl)methanone] | 32 nM
COc1ccccc1S(=O)(=O)N1CCN(C(=O)c2cnn[nH]2)CC1(C)C [Example 130, {4-[(2-methoxyphenyl)sulfonyl]-3,3-dimethylpiperazin-1-yl}(1H-1,2,3-triazol-5-yl)methanone] | 38 nM
COc1ccc(Cl)cc1S(=O)(=O)N1CCN(C(=O)c2cnn[nH]2)CC1(C)C [Example 124, {4-[(5-chloro-2-methoxyphenyl)sulfonyl]-3,3-dimethylpiperazin-1-yl}(1H-1,2,3-triazol-5-yl)methanone] | 96 nM
C[C@@H]1CN(C(=O)c2c[nH]nn2)[C@@H](C)CN1S(=O)(=O)c1cc(F)ccc1F [Example 13, {(2S,5R)-4-[(2,5-difluorophenyl)sulfonyl]-2,5-dimethylpiperazin-1-yl}(1H-1,2,3-triazol-4-yl)methanone] | 2 nM
C[C@@H]1CN(S(=O)(=O)c2cccc(Cl)c2)C[C@H](C)N1C(=O)c1c[nH]nn1 [Example 48, {(2R,6S)-4-[(3-chlorophenyl)sulfonyl]-2,6-dimethylpiperazin-1-yl}(1H-1,2,3-triazol-4-yl)methanone] | 3 nM
C[C@@H]1CN(S(=O)(=O)c2ccccc2)C[C@H](C)N1C(=O)c1c[nH]nn1 [Example 18, [(2R,6S)-2,6-dimethyl-4-(phenylsulfonyl)piperazin-1-yl](1H-1,2,3-triazol-4-yl)methanone] | 11 nM
C[C@@H]1CN(C(=O)c2c[nH]nn2)[C@@H](C)CN1S(=O)(=O)c1ccc(Cl)s1 [Example 10, {(2S,5R)-4-[(5-chlorothiophen-2-yl)sulfonyl]-2,5-dimethylpiperazin-1-yl}(1H-1,2,3-triazol-4-yl)methanone] | 3 nM
CC1(C)CN(C(=O)c2cnn[nH]2)CCN1S(=O)(=O)c1ccc([N+](=O)[O-])cc1 [Example 111, {3,3-dimethyl-4-[(4-nitrophenyl)sulfonyl]piperazin-1-yl}(1H-1,2,3-triazol-5-yl)methanone] | 89 nM
C[C@@H]1CN(C(=O)c2cnn[nH]2)C[C@H](C)N1S(=O)(=O)c1cc(F)cc(F)c1 [Example 42, {(3R,5S)-4-[(3,5-difluorophenyl)sulfonyl]-3,5-dimethylpiperazin-1-yl}(1H-1,2,3-triazol-5-yl)methanone] | 9 nM
CC1(C)CN(C(=O)c2cnn[nH]2)CCN1S(=O)(=O)c1cccc2nsnc12 [Example 121, [4-(2,1,3-benzothiadiazol-4-ylsulfonyl)-3,3-dimethylpiperazin-1-yl](1H-1,2,3-triazol-5-yl)methanone] | 29 nM
C[C@@H]1CN(C(=O)c2cnn[nH]2)[C@@H](C)CN1S(=O)(=O)c1c(F)cccc1F [Example 79, {(2S,5R)-4-[(2,6-difluorophenyl)sulfonyl]-2,5-dimethylpiperazin-1-yl}(1H-1,2,3-triazol-5-yl)methanone] | 2 nM
C[C@@H]1CN(C(=O)c2cnn[nH]2)[C@@H](C)CN1S(=O)(=O)c1cccc(F)c1 [Example 7, sodium 5-({(2S,5R)-4-[(3-fluorophenyl)sulfonyl]-2,5-dimethylpiperazin-1-yl}carbonyl)-1,2,3-triazol-1-ide] | 1 nM
CC1(C)CN(C(=O)c2cnn[nH]2)CCN1S(=O)(=O)c1ccccc1Cl [Example 32, {4-[(2-chlorophenyl)sulfonyl]-3,3-dimethylpiperazin-1-yl}(1H-1,2,3-triazol-5-yl)methanone] | 15 nM
C[C@@H]1CN(C(=O)c2cnn[nH]2)[C@@H](C)CN1S(=O)(=O)c1ccccc1 [Example 1, [(2S,5R)-2,5-dimethyl-4-(phenylsulfonyl)piperazin-1-yl](1H-1,2,3-triazol-5-yl)methanone] | 2 nM
COc1cccc(S(=O)(=O)N2C[C@@H](C)N(C(=O)c3cnn[nH]3)[C@@H](C)C2)c1 [Example 108, {(2R,6S)-4-[(3-methoxyphenyl)sulfonyl]-2,6-dimethylpiperazin-1-yl}(1H-1,2,3-triazol-5-yl)methanone] | 40 nM
CC1(C)CN(C(=O)c2cnn[nH]2)CCN1S(=O)(=O)c1cc(Cl)ccc1F [Example 127, {4-[(5-chloro-2-fluorophenyl)sulfonyl]-3,3-dimethylpiperazin-1-yl}(1H-1,2,3-triazol-5-yl)methanone] | 4 nM
CC1(C)CN(C(=O)c2cnn[nH]2)CCN1S(=O)(=O)c1ccc(Cl)c(Cl)c1 [Example 116, {4-[(3,4-dichlorophenyl)sulfonyl]-3,3-dimethylpiperazin-1-yl}(1H-1,2,3-triazol-5-yl)methanone] | 2 nM
